Drawing on patent US7279444B2, “Substituted benzoylpyrazoles” (Bayer CropScience GmbH, priority 1999, dated 2007), this text covers chromatographic logP and logP for 48 compounds.

The nature of the data set: log P by HPLC on reversed-phase column (C 18), acidic range. The class given is physicochemical. How it is done:
Temperature: 43° C. […] The log P values given in Table 3 were determined in accordance with EEC Directive 79/831 Annex V.A8 by HPLC (High Performance Liquid Chromatography) on a reversed-phase column (C 18). Temperature: 43° C. […] The log P values given in Tables 4 were determined in accordance with EEC Directive 79/831 Annex V.A8 by HPLC (High Performance Liquid Chromatography) on a reversed-phase column (C 18). Temperature: 43° C.

Marks after values point to notes of the source that are not given here.

On to `CCn1ncc(C(=O)c2ccc(-n3nc(C(F)(F)F)n(C)c3=O)cc2Cl)c1O` [Example 1, 4-methyl-5-trifluoromethyl-2-[3-chloro-4-(1-ethyl-5-hydroxy-pyrazol-4-yl-carbonyl)-phenyl]-2,4-dihydro-3H-1,2,4-triazol-3-one], for which the chromatographic logP (in general, a lipophilicity value derived from retention on a column) (reversed-phase HPLC column (C 18), pH=2) was determined as 2.63.

In the case of `CCn1ncc(C(=O)c2ccc(S(C)(=O)=O)cc2Cn2nc(SC)n(C)c2=O)c1O` [Example 4], the logP entry is “logP = 1.24^a)”.

Take `CCSc1nn(Cc2cc(C(F)(F)F)ccc2C(=O)c2cnn(CC)c2O)c(=O)n1C` [Example 5]: the logP entry is “logP = 2.58^a)”.

As to `CCn1ncc(C(=O)c2ccc(C(F)(F)F)cc2Cn2nc(SC(C)C)n(C)c2=O)c1O` [Example 6], the logP result is given as “logP = 2.90^a)”.

Turning to `CCn1ncc(C(=O)c2ccc(C(F)(F)F)cc2Cn2nc(OC)n(C3CC3)c2=O)c1O` [Example 7], the logP entry was “(IA)logP = 2.28^a)”.

As for `CCn1ncc(C(=O)c2ccc(F)cc2Cn2nc(N(C)C)n(C)c2=O)c1O` [Example 8], the logP result is “logP = 1.61^a)”.

In the case of `Cc1nn(C)c(O)c1C(=O)c1ccc(F)cc1Cn1nc(N(C)C)n(C)c1=O` [Example 9], the logP entry was “logP = 1.32^a)”.

With `COc1nn(Cc2cc(F)ccc2C(=O)c2c(C)nn(C)c2O)c(=O)n1C1CC1` [Example 10], the logP entry is reported as “(IA)logP = 1.50^a)”.

Take `CCOc1nn(Cc2cc(F)ccc2C(=O)c2c(C)nn(C)c2O)c(=O)n1C1CC1` [Example 11]: the logP entry is “(IA)logP = 1.80^a)”.

On to `C=CCSc1nn(Cc2cc(Br)ccc2C(=O)c2cnn(CC)c2O)c(=O)n1C` [Example 12], for which the logP result is “(IA)logP = 2.69^a)”.

As for `CCn1ncc(C(=O)c2cc(-n3nc(C(F)(F)F)n(C)c3=O)ccc2C(F)(F)F)c1O` [Example 13], the logP entry is “logP = 2.83^a)”.

With `CCn1ncc(C(=O)c2ccccc2-n2nc(C(F)(F)F)n(C)c2=O)c1O` [Example 15], the logP entry is listed as “logP = 1.95^a)”.

`CCn1ncc(C(=O)c2ccc(Cl)cc2-n2nc(C(F)(F)F)n(C)c2=O)c1O` [Example 16]: the logP entry is recorded as “logP = 2.47^a)”.

Turning to `CCn1ncc(C(=O)c2ccc(Cl)c(Cn3nc(C(F)(F)F)n(C)c3=O)c2Cl)c1O` [Example 17], the logP result was “logP = 2.30^a)”.

On to `CCn1ncc(C(=O)c2ccc(Cl)c(Cn3nc(SC)n(C)c3=O)c2Cl)c1O` [Example 18], for which the logP entry is “logP = 1.91^a)”.

Turning to `CCOc1nn(Cc2c(Cl)ccc(C(=O)c3cnn(CC)c3O)c2Cl)c(=O)n1C` [Example 19], the logP entry is on record as “logP = 2.01^a)”.

Take `CCn1ncc(C(=O)c2ccc(Cl)c(Cn3nc(C4CC4)n(C4CC4)c3=O)c2Cl)c1O` [Example 20]: the logP entry is “(IB)logP = 2.14^a)”.

In the case of `CCn1ncc(C(=O)c2ccc(Cl)c(Cn3nc(OC)n(C)c3=O)c2Cl)c1O` [Example 21], the logP entry is recorded as “logP = 1.69^a)”.

With `CCn1ncc(C(=O)c2ccc(Cl)c(Cn3nc(OC(C)C)n(C)c3=O)c2Cl)c1O` [Example 22], the logP result is reported as “logP = 2.31^a)”.

For the compound `CCn1ncc(C(=O)c2ccc(Cl)c(Cn3nc(OCC(F)(F)F)n(C)c3=O)c2Cl)c1O` [Example 23], the logP entry is “logP = 2.33^a)”.

As for `CCn1ncc(C(=O)c2ccc(Cl)c(Cn3nc(Br)n(C)c3=O)c2Cl)c1O` [Example 24], the logP entry is “logP = 1.81^a)”.

As to `CCn1ncc(C(=O)c2ccc(Cl)c(Cn3ncn(C)c3=O)c2Cl)c1O` [Example 25], the logP entry was “logP = 1.28^a)”.

As to `CCn1ncc(C(=O)c2ccc(Cl)c(Cn3nc(C4CC4)n(C)c3=O)c2Cl)c1O` [Example 26], the logP entry is reported as “(IB)logP = 1.82^a)”.

For `CCn1ncc(C(=O)c2ccc(Br)cc2-n2nc(C(F)(F)F)n(C)c2=O)c1O` [Example 27], the logP result is reported as “logP = 2.55^a)”.

In the case of `CCn1ncc(C(=O)c2ccc(Cl)c(Cn3nc(N(C)C)n(C)c3=O)c2Cl)c1O` [Example 28], the logP entry is given as “logP = 1.77^a)”.

Consider `CCn1ncc(C(=O)c2ccc(Cl)c(Cn3nc(C)n(C)c3=O)c2Cl)c1O` [Example 29], for which the logP entry is on record as “logP = 1.38^a)”.

Turning to `CCn1ncc(C(=O)c2ccc(Cl)c(Cn3nc4n(c3=O)CCCC4)c2Cl)c1O` [Example 30], the logP result is reported as “logP = 1.55^a)”.

Regarding `CCn1ncc(C(=O)c2ccc(Cl)c(Cn3nc(OC)n(C4CC4)c3=O)c2Cl)c1O` [Example 31], the logP entry was “(IB)logP = 1.99^a)”.

`CCOc1nn(Cc2c(Cl)ccc(C(=O)c3cnn(CC)c3O)c2Cl)c(=O)n1C1CC1` [Example 32]: the logP entry is reported as “(IB)logP = 2.31^a)”.

Regarding `CCn1ncc(C(=O)c2ccc(Cl)c(Cn3nc(OC(C)C)n(C4CC4)c3=O)c2Cl)c1O` [Example 33], the logP entry was “(IB)logP = 4.64^a)”.

For the compound `CCn1ncc(C(=O)c2ccc(Cl)c(Cn3nc(OCC(F)(F)F)n(C4CC4)c3=O)c2Cl)c1O` [Example 34], the logP result was “(IB)logP = 2.65^a)”.

With `CCn1ncc(C(=O)c2ccc(Cl)c(Cn3nc(SC)n(C4CC4)c3=O)c2Cl)c1O` [Example 35], the logP result was “(IB)logP = 2.27^a)”.

`CCn1ncc(C(=O)c2ccc(Cl)c(Cn3nc(C)n(C4CC4)c3=O)c2Cl)c1O` [Example 36]: the logP result is “(IB)logP = 1.64^a)”.

As for `CCn1ncc(C(=O)c2ccc(Cl)c(Cn3nc(N(C)C)n(C4CC4)c3=O)c2Cl)c1O` [Example 37], the logP result is recorded as “(IB)logP = 2.04^a)”.

As for `CCOn1c(CC)nn(Cc2c(Cl)ccc(C(=O)c3cnn(CC)c3O)c2Cl)c1=O` [Example 38], the logP result was “(IB)logP = 2.16^a)”.

Regarding `Cc1nn(C)c(O)c1C(=O)c1ccc(Cl)c(Cn2nc(Br)n(C)c2=O)c1Cl` [Example 39], the logP result is “logP = 1.52^a)”.

Turning to `Cn1ncc(C(=O)c2ccc(Cl)c(Cn3nc(Br)n(C)c3=O)c2Cl)c1O` [Example 40], the logP entry is listed as “logP = 1.53^a)”.

In the case of `CCn1nc(C)c(C(=O)c2ccc(Cl)c(Cn3nc(SC)n(C)c3=O)c2Cl)c1O` [Example 41], the logP entry is given as “logP = 1.91^a)”.

For `CCOc1nn(Cc2c(Cl)ccc(C(=O)c3c(C)nn(CC)c3O)c2Cl)c(=O)n1C` [Example 42], the logP result was “logP = 2.02^a)”.

As for `CCn1nc(C)c(C(=O)c2ccc(Cl)c(Cn3nc(OC)n(C)c3=O)c2Cl)c1O` [Example 43], the logP result is recorded as “logP = 1.71^a)”.

As to `CCn1nc(C)c(C(=O)c2ccc(Cl)c(Cn3nc(Br)n(C)c3=O)c2Cl)c1O` [Example 44], the logP result was “logP = 1.81^a)”.

Consider `CCn1nc(C)c(C(=O)c2ccc(Cl)c(Cn3nc(C)n(C)c3=O)c2Cl)c1O` [Example 45], for which the logP result is listed as “logP = 1.40^a)”.

Turning to `CSc1nn(Cc2c(Cl)ccc(C(=O)c3c(C)nn(C(C)(C)C)c3O)c2Cl)c(=O)n1C` [Example 46], the logP result is reported as “logP = 3.30^a)”.

Consider `CCOc1nn(Cc2c(Cl)ccc(C(=O)c3c(C)nn(C(C)(C)C)c3O)c2Cl)c(=O)n1C` [Example 47], for which the logP entry was “logP = 3.44^a)”.

As to `COc1nn(Cc2c(Cl)ccc(C(=O)c3c(C)nn(C(C)(C)C)c3O)c2Cl)c(=O)n1C` [Example 48], the logP result was “logP = 3.02^a)”.

As to `Cc1nn(C(C)(C)C)c(O)c1C(=O)c1ccc(Cl)c(Cn2nc(Br)n(C)c2=O)c1Cl` [Example 49], the logP entry is recorded as “logP = 3.19^a)”.

Take `Cc1nn(C(C)(C)C)c(O)c1C(=O)c1ccc(Cl)c(Cn2nc(C)n(C)c2=O)c1Cl` [Example 50]: the logP entry is “logP = 2.53^a)”.

Turning to `CSc1nn(Cc2c(Cl)ccc(C(=O)c3c(C)nn(C)c3O)c2Cl)c(=O)n1C` [Example 51], the logP entry is reported as “logP = 1.66^a)”.
